Experimental data as given in patent publication EP4616862A1, “ANTIVIRAL C[…] DERIVED FROM NUCLEIC ACID AND PHARMACEUTICALLY ACCEPTABLE SALTS THEREOF” (priority 2022, dated 2024).
Like-named read-outs stand apart in the source and are kept apart here.

Key:
[1] = system: African Swine Fever Virus (ASFV, China/2018/AnhuiXCGQ); assay: microbe, parasite or virus in culture; assay type: cell-based; conditions: for IC50: African swine fever virus
[2] = system: Classical Swine Fever Virus (CSFV); assay: microbe, parasite or virus in culture; assay type: cell-based; conditions: for IC50: Classical swine fever virus
[3] = system: Low pathogenic avian influenza virus (LPAIV, H9N2); assay: microbe, parasite or virus in culture; assay type: cell-based; conditions: for IC50: unidentified influenza virus, H9N2, MDCK
[4] = system: Canine coronavirus (CCoV); assay: microbe, parasite or virus in culture; assay type: cell-based
Canine adenovirus (CAV) = assay: CAV infection inhibition in Vero cells (qPCR of viral DNA); assay type: cell-based; conditions: for SI (selectivity index): CC50/IC50; for IC50: Canine mastadenovirus A, Vero cell line
[5] = system: Canine distemper virus (CDV); assay: microbe, parasite or virus in culture; assay type: cell-based; conditions: for IC50: canine distemper virus, Vero
Feline parvovirus (FPV) = assay: microbe, parasite or virus in culture; assay type: cell-based; conditions: for IC50: Feline parvovirus, CRFK
Feline Calicivirus (FCV) = assay: microbe, parasite or virus in culture; assay type: cell-based; conditions: for IC50: Feline calicivirus, CRFK
FIPV = FIPV infection inhibition in FCWF-4 cells (RT-qPCR); assay type: cell-based, Feline Infectious peritonitis virus; conditions: for IC50: FCWF-4 cell line; for SI (selectivity index): CC50/IC50
[6] = system: foot and mouth disease virus (FMDV); assay: microbe, parasite or virus in culture; assay type: cell-based; conditions: for IC50: Foot-and-mouth disease virus
[7] = Cytotoxicity (CCoV example); assay type: cell-based, canine; conditions: Table 4 (CCoV), cell line for cytotoxicity not given
[8] = Cytotoxicity (CAV example); assay type: cell-based, monkey; conditions: Table 5 (CAV), cell line for cytotoxicity not given
[9] = Cytotoxicity (CDV example); assay type: cell-based, monkey; conditions: Table 6 (CDV), cell line for cytotoxicity not given
[10] = Cytotoxicity (FPV example); assay type: cell-based, feline; conditions: Table 7 (FPV), cell line for cytotoxicity not given
[11] = Cytotoxicity (FCV example); assay type: cell-based, feline; conditions: Table 8 (FCV), cell line for cytotoxicity not given
[12] = Cytotoxicity (FIPV example); assay type: cell-based, feline; conditions: Table 9 (FIPV), cell line for cytotoxicity not given
ISG15 = assay type: cell-based, Pig
Mx1 = assay type: cell-based, Pig
RNaseL = assay type: cell-based, Pig
in vitro [13] = assay: in vitro
in vitro [14] = assay: in vitro; remark: listed apart in the source
in vitro [15] = assay: in vitro; remark: listed apart in the source
in vitro [16] = assay: in vitro; remark: listed apart in the source
[17] = 48 h, read-out: IC50 (ASFV infection inhibition concentration)
[18] = PK-15, 48 h, read-out: IC50 (CSFV infection inhibition concentration)
[19] = 48 h, read-out: IC50 (LPAIV infection inhibition concentration)
[20] = Alphacoronavirus 1, A-72, 48 h, read-out: IC50 (CCoV infection inhibition concentration)
[21] = 48 h, CAV 100 TCID50/well, simultaneous treatment, 2 days, qPCR, read-out: IC50 (CAV infection inhibition concentration)
[22] = 72 h, read-out: IC50 (CDV infection inhibition concentration)
[23] = 48 h, read-out: IC50 (FPV infection inhibition concentration)
[24] = 24 h, read-out: IC50 (FCV infection inhibition concentration)
[25] = Alphacoronavirus 1, 48 h, FIPV 100 TCID50/well, simultaneous treatment, 2 days, RT-qPCR, read-out: IC50 (FIPV infection inhibition concentration)
[26] = BHK-21, 36 h, read-out: IC50 (FMDV infection inhibition concentration)

Compound | SI (selectivity index) [1] | IC50 [1, 17] | SI (selectivity index) [2] | IC50 [2, 18] | IC50 [3, 19] | SI (selectivity index) [4] | IC50 [4, 20] | SI (selectivity index) (Canine adenovirus (CAV); CAV) | IC50 (Canine adenovirus (CAV); [21]) | SI (selectivity index) [5] | IC50 [5, 22] | SI (selectivity index) (Feline parvovirus (FPV)) | IC50 (Feline parvovirus (FPV); [23]) | SI (selectivity index) (Feline Calicivirus (FCV)) | IC50 (Feline Calicivirus (FCV); [24]) | IC50 (FIPV; [25]) | SI (selectivity index) (FIPV; FIPV) | Fold change (multiple increase compared to control group) ISG15 (ISG15) | Fold change (multiple increase compared to control group) Mx1 (Mx1) | Fold change (multiple increase compared to control group) RNaseL (RNaseL) | other results
Nc1nc2c(ncn2[C@@H](CO)OC(CO)CO)c(=O)[nH]1 [Acyclic diol-Guanosine, acyclic diol form of guanosine] | > 37.0 | < 0.27 mM | > 2.8 | < 3.61 mM | < 1.34 mM | > 4.5 | < 2.24 mM | > 2.4 | < 4.13 mM | > 4.7 | < 2.12 mM | > 1.9 | < 0.53 mM | > 75.1 | < 0.133 mM | < 1.51 mM | > 6.6 | 4.2 (±1.5) | 4.0 (±1.2) | 3.0 (±0.8) | SI (selectivity index) [6]: > 4.9; IC50 [6, 26]: < 2.06 mM; CC50 ([7]; dog, a-72 cells): > 10 mM; CC50 ([8]; monkey, vero cells): > 10 mM; CC50 ([9]; monkey, vero cells): > 10 mM; CC50 ([10]; cat, crfk cells): > 10 mM; CC50 ([11]; cat, crfk cells): > 10 mM; CC50 ([12]; cat, fcwf-4 cells): > 10 mM; CC50 (in vitro [13]; pig, pam cells): > 10 mM; CC50 (in vitro [14]; pig, pk15 cells): > 10 mM; CC50 (in vitro [15]; dog, mdck): > 10 mM; CC50 (in vitro [16]; hamster, bhk-21 cells): > 10 mM
O=c1[nH]cnc2c1ncn2[C@@H](CO)OC(CO)CO [Acyclic diol-Inosine, acyclic diol form of inosine] | > 28.3 | < 0.353 mM | > 5.7 | < 1.75 mM | < 1.81 mM | > 7.9 | < 1.27 mM | > 5.6 | < 1.78 mM | > 3.7 | < 2.7 mM | > 5.4 | < 1.87 mM | > 27.6 | < 0.362 mM | < 0.872 mM | > 11.5 | 6.3 (±0.4) | 2.8 (±0.9) | 2.0 (±0.3) | SI (selectivity index) [6]: > 8.3; IC50 [6, 26]: < 1.2 mM; CC50 ([7]; dog, a-72 cells): > 10 mM; CC50 ([8]; monkey, vero cells): > 10 mM; CC50 ([9]; monkey, vero cells): > 10 mM; CC50 ([10]; cat, crfk cells): > 10 mM; CC50 ([11]; cat, crfk cells): > 10 mM; CC50 ([12]; cat, fcwf-4 cells): > 10 mM; CC50 (in vitro [13]; pig, pam cells): > 10 mM; CC50 (in vitro [14]; pig, pk15 cells): > 10 mM; CC50 (in vitro [15]; dog, mdck): > 10 mM; CC50 (in vitro [16]; hamster, bhk-21 cells): > 10 mM
O=c1[nH]c(=O)c2ncn([C@@H](CO)OC(CO)CO)c2[nH]1 [Acyclic diol-Xanthosine, acyclic diol form of xanthosine] | > 8.6 | < 1.17 mM | > 3.4 | < 2.96 mM | < 2 mM | > 3.8 | < 2.6 mM | > 7.4 | < 1.35 mM | > 4.9 | < 2.05 mM | > 1.7 | < 5.75 mM | > 64.5 | < 0.155 mM | < 1.02 mM | > 9.8 | 4.7 (±1.3) | 2.7 (±1.4) | 1.7 (±0.3) | SI (selectivity index) [6]: > 5.0; IC50 [6, 26]: < 2 mM; CC50 ([7]; dog, a-72 cells): > 10 mM; CC50 ([8]; monkey, vero cells): > 10 mM; CC50 ([9]; monkey, vero cells): > 10 mM; CC50 ([10]; cat, crfk cells): > 10 mM; CC50 ([11]; cat, crfk cells): > 10 mM; CC50 ([12]; cat, fcwf-4 cells): > 10 mM; CC50 (in vitro [13]; pig, pam cells): > 10 mM; CC50 (in vitro [14]; pig, pk15 cells): > 10 mM; CC50 (in vitro [15]; dog, mdck): > 10 mM; CC50 (in vitro [16]; hamster, bhk-21 cells): > 10 mM
Nc1nc2c(ncn2[C@@H](C=O)O[C@@H](C=O)CO)c(=O)[nH]1 [Dialdehyde-Guanosine, dialdehyde form of guanosine] | > 75.9 | < 0.079 mM | > 36.1 | < 0.165 mM | < 0.102 mM | > 54.7 | < 0.11 mM | > 69.8 | < 0.0859 mM | > 46.5 | < 0.129 mM | > 158 | < 0.038 mM | > 329.7 | < 0.0182 mM | < 0.0528 mM | > 113.7 | 4.7 (±0.3) | 3.5 (±0.7) | 2.5 (±0.1) | IC50 [1]: 0.079 mM; IC50 [3]: 0.102 mM; IC50 ([4]; Alphacoronavirus 1, A-72): 0.11 mM; IC50 (Canine adenovirus (CAV); CAV, read-out: IC50): 0.0859 mM; IC50 (Feline Calicivirus (FCV)): 0.0182 mM; SI (selectivity index) [6]: > 52.3; IC50 ([6]; BHK-21): 0.115 mM; IC50 [6, 26]: < 0.115 mM; CC50 ([7]; dog, a-72 cells): > 6 mM; CC50 ([8]; monkey, vero cells): > 6 mM; CC50 ([9]; monkey, vero cells): > 6 mM; CC50 ([10]; cat, crfk cells): > 6 mM; CC50 ([11]; cat, crfk cells): > 6 mM; CC50 ([12]; cat, fcwf-4 cells): > 6 mM; CC50 (in vitro [13]; pig, pam cells): > 6 mM; CC50 (in vitro [14]; pig, pk15 cells): > 6 mM; CC50 (in vitro [15]; dog, mdck): > 6 mM; CC50 (in vitro [16]; hamster, bhk-21 cells): > 6 mM
O=C[C@@H](CO)O[C@H](C=O)n1cnc2c(=O)[nH]cnc21 [Dialdehyde-Inosine, dialdehyde form of inosine] | > 103.5 | < 0.0966 mM | > 42.0 | < 0.238 mM | < 0.268 mM | > 221.7 | < 0.0451 mM | > 30.7 | < 0.326 mM | > 93.9 | < 0.106 mM | > 192 | < 0.052 mM | > 384.6 | < 0.026 mM | < 0.0455 mM | > 219.9 | 4.0 (±0.6) | 3.5 (±1.1) | 3.0 (±0.2) | SI (selectivity index) [3]: > 37.4; IC50 ([4]; Alphacoronavirus 1, A-72): 0.0451 mM; IC50 (FIPV; Alphacoronavirus 1, FIPV, read-out: IC50): 0.0455 mM; SI (selectivity index) [6]: > 22.9; IC50 [6, 26]: < 0.436 mM; CC50 [7]: > 10 mM; CC50 [8]: > 10 mM; CC50 [9]: > 10 mM; CC50 [10]: > 10 mM; CC50 [11]: > 10 mM; CC50 [12]: > 10 mM; CC50 (in vitro [13]): > 10 mM; CC50 (in vitro [14]): > 10 mM; CC50 (in vitro [15]): > 10 mM; CC50 (in vitro [16]): > 10 mM
O=C[C@@H](CO)O[C@H](C=O)n1cnc2c(=O)[nH]c(=O)[nH]c21 [Dialdehyde-Xanthosine, dialdehyde form of xanthosine] | > 90.9 | < 0.11 mM | > 63.8 | < 0.157 mM | < 0.222 mM | > 232.6 | < 0.043 mM | > 77.2 | < 0.13 mM | > 125.1 | < 0.0799 mM | > 258 | < 0.031 mM | > 398.0 | < 0.0201 mM | < 0.0551 mM | > 181.4 | 4.5 (±0.4) | 3.5 (±1.0) | 3.4 (±0.2) | IC50 ([2]; PK-15): 0.157 mM; SI (selectivity index) [3]: > 45.1; IC50 ([4]; Alphacoronavirus 1, A-72): 0.043 mM; IC50 [5]: 0.0799 mM; IC50 (Feline parvovirus (FPV)): 0.031 mM; CC50 [7]: > 10 mM; CC50 [8]: > 10 mM; CC50 [9]: > 10 mM; CC50 [10]: > 8 mM; CC50 [11]: > 8 mM; CC50 [12]: > 10 mM; CC50 (in vitro [13]): > 10 mM; CC50 (in vitro [14]): > 10 mM; CC50 (in vitro [15]): > 10 mM
